Measured values reported in US7745443B2 (Sanofi-Aventis Deutschland GmbH, priority 2002, dated 2010).
pIC50: −log10 of the molar value.

Molecular target: binding of human von Willebrand factor to europium (Eu)-chelate-labeled chimeric GPIb-Fc protein (Homo sapiens, UniProt P04275+P07359)
Test: Von Willebrand Factor-GPIb Binding Assay (Eu based, botrocetin-induced)
Settings: botrocetin-induced binding of Eu-chelate-labeled chimeric GPIb-Fc to immobilized human vWF; IC50 values as specified in the examples
Experimental: Activity of compounds of the formula I was shown by an Eu based binding assay in which the binding of human von Willebrand factor to an europium (Eu)-chelate-labeled chimeric GPIb-Fc protein was induced by botrocetin. The preparation of the Eu-chelate-labeled chimeric GPIb-Fc protein is described in detail in a patent application (Fukuchi et al., EP1074564).
A TBS (Tris buffered saline, 20 mM Tris-HCl (pH 7.4) and 0.15 M NaCl) (50 microl) containing human von Willebrand factor (2.5 microg/ml) was added to each well of 1 96-well plate, and the von Willebrand factor was immobilized as a solid phase overnight at 4 dec. Each well was washed once with TBS (150 microl) and blocked with TBS containing 5% BSA (bovine serum albumin) for about 3 hours. Each well of the plate was washed twice with TBS (150 microl), and then added with 25 microl of an assay buffer (Assay Buffer, 1244-106, produced by Wallac) with the compounds, further added with the assay buffer (25 microl) containing the europium (Eu)-chelate-labeled chimeric GPIb-Fc protein (100 ng/ml), labeled with Eu-N1-ITC (Eu-chelate of N^1-(p-isothiocyanatebenzyl)-diethlenetriamine-N^1,N^2,N^3,N^3-tetraacetic acid, 1244-302, produced by Wallac) and botrocetin (500 ng/ml), and left stand at room temperature for 2 hours. The preparation of the Eu-chelate-labeled chimeric GPIb-Fc protein is described in detail in a patent application (Fukuchi et al., EP1074564). Each well of the plate was washed 5 times with TBS (150 microl) containing 0.05% Tween-20, then added with 100 microl of a fluorescence enhancement buffer (Enhancement Solution, 1244-104, produced by Wallac), and shaken for 1 minute. Then, the amount of europium (Eu) was measured by using a 1420 ARVO multi-label counter (produced by Wallac, measurements time: 1 second).

binding of human von Willebrand factor to europium (Eu)-chelate-labeled chimeric GPIb-Fc protein, sequence (P04275 764-2813 limits assumed, change not shown): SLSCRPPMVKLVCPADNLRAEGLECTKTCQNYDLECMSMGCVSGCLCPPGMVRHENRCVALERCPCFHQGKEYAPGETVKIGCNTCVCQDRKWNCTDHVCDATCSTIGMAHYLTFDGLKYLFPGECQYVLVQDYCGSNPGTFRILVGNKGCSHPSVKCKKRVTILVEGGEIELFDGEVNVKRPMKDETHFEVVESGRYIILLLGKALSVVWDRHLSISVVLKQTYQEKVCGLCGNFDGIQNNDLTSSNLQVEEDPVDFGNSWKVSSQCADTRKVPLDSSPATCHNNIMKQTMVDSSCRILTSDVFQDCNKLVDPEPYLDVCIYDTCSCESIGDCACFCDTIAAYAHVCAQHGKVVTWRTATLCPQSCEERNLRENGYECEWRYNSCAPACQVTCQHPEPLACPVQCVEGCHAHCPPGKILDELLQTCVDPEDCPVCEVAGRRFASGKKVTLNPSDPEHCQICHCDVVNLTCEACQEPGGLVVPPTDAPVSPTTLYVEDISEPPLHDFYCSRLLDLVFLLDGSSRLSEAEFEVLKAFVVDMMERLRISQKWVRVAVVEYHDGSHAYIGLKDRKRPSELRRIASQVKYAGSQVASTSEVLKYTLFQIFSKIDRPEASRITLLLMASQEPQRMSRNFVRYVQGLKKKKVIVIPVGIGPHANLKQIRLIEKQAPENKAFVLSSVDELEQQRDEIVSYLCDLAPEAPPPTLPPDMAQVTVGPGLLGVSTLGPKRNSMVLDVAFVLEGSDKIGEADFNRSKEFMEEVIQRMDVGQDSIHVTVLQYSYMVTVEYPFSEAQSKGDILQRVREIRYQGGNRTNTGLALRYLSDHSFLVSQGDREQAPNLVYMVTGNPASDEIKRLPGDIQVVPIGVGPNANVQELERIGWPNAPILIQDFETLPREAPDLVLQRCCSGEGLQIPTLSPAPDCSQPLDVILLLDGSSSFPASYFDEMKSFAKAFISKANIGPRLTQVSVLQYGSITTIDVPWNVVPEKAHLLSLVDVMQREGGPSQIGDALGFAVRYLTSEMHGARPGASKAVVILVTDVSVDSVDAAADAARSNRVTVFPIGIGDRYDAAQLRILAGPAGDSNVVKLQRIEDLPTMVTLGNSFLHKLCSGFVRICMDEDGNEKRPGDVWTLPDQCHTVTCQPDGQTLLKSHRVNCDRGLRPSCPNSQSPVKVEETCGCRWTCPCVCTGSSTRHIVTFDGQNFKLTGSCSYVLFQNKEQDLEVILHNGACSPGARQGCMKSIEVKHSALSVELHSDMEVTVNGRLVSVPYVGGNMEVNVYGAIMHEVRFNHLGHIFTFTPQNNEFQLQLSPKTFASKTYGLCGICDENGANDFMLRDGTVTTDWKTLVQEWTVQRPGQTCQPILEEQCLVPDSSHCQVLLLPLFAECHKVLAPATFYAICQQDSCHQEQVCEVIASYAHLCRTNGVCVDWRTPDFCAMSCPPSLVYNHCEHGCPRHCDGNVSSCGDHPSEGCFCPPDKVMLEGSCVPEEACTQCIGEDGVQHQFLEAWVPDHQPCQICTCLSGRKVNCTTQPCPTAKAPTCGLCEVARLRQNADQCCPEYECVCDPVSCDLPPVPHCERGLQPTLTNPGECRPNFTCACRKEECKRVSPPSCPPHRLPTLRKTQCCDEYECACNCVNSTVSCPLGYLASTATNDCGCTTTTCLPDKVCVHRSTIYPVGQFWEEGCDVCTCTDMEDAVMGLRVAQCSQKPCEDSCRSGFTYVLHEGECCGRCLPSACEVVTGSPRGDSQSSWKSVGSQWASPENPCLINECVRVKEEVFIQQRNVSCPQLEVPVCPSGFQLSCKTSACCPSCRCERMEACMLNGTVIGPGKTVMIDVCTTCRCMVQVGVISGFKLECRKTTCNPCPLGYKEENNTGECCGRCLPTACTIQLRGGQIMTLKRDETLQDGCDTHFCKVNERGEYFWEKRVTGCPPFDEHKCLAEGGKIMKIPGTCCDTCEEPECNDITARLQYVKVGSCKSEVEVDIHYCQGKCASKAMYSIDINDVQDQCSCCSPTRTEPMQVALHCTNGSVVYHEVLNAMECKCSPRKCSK
binding of human von Willebrand factor to europium (Eu)-chelate-labeled chimeric GPIb-Fc protein, sequence (P07359 17-335 limits assumed, change not shown): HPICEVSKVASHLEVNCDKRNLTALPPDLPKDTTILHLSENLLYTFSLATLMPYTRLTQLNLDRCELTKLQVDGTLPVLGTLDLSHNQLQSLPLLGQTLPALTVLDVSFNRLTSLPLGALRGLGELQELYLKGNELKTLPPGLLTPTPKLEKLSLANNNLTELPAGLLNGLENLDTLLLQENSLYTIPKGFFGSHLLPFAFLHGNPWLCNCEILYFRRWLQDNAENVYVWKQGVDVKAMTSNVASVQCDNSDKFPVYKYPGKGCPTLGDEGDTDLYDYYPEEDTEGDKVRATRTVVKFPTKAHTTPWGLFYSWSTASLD

| Structure (SMILES) | pIC50 |
| --- | --- |
| Cc1cc(N)c2cc(C(=O)Nc3ccc(NC(=O)c4cccnc4Cl)cc3)ccc2n1 [Example 18, 4-Amino-N-(4-{[(2-chloro-3-pyridinyl)carbonyl]amino}phenyl)-2-methyl-6-quinolinecarboxamide] | 4.28 |
| Cc1cc(N)c2cc(NC(=O)c3ccc(CNC(=O)c4ccc(N)nc4)cc3)ccc2n1 [Example 5, 6-Amino-N-[4-(4-amino-2-methyl-quinolin-6-ylcarbamoyl)-benzyl]-nicotinamide] | 4.05 |
| Cc1cc(N)c2cc(C(=O)Nc3ccc(NC(=O)c4ccc5nc(N)ccc5c4)cc3)ccc2n1 [Example 33, 4-Amino-N-(4-{[(2-amino-6-quinolinyl)carbonyl]amino}phenyl)-2-methyl-6-quinolinecarboxamide] | 5.77 |
| Cc1cc(N)c2cc(C(=O)Nc3ccc(CNc4cc(C)[n+](C)c(N)n4)cc3)ccc2n1 [Example 9, 2-Amino-4-[(4-{[(4-amino-2-methyl-6-quinolinyl)carbonyl]amino}benzyl)amino]-1,6-dimethylpyrimidin-1-ium] | 4.70 |
| Cc1cc(N)c2cc(C(=O)Nc3ccc(NC(=O)c4ccc5[nH]cnc5c4)cc3)ccc2n1 [Example 32, 4-amino-N-{4-[(1H-benzimidazol-5-ylcarbonyl)amino]phenyl}-2-methyl-6-quinolinecarboxamide] | 5.12 |
| Cc1cc(N)c2cc(C(=O)NC3CCC(NC(=O)c4ccc5nc(N)sc5c4)CC3)ccc2n1 (stereo not shown) [Example 38, 4-Amino-N-(4-{[(2-amino-1,3-benzothiazol-6-yl)carbonyl]amino}cyclohexyl)-2-methyl-6-quinolinecarboxamide] | 4.48 |
| Cc1cc(N)c2cc(C(=O)Nc3ccc(NC(=O)c4cccc(N(C)C)c4)cc3)ccc2n1 [Example 27, 4-Amino-N-{4-[(3-dimethylaminobenzoyl)amino]phenyl}-2-methyl-6-quinolinecarboxamide] | 4.33 |
| Cc1cc(N)c2cc(C(=O)Nc3ccc(CNC(=O)c4nccnc4N)cc3)ccc2n1 [Example 15, 4-Amino-N-[4-({[(3-amino-2-pyrazinyl)carbonyl]amino}methyl)phenyl]-2-methyl-6-quinolinecarboxamide] | 4.26 |
| Cc1cc(N)c2cc(NC(=O)c3ccc(CNc4cc(C)[n+](C)c(N)n4)cc3)ccc2n1 [Example 3, 2-Amino-4-[4-(4-amino-2-methyl-quinolin-6-ylcarbamoyl)-benzylamino]-1,6-dimethyl-pyrimidin-1-ium] | 4.04 |
| Cc1cc(N)c2cc(C(=O)Nc3ccc(NC(=O)c4cncc(Br)c4)cc3)ccc2n1 [Example 19, 4-Amino-N-(4-{[(5-bromo-3-pyridinyl)carbonyl]amino}phenyl)-2-methyl-6-quinolinecarboxamide] | 4.68 |
| Cc1cc(N)c2cc(C(=O)Nc3ccc(NC(=O)c4cnc(Cl)c(Cl)c4)cc3)ccc2n1 [Example 25, 4-Amino-N-(4-{[(2,3-dichloro-5-pyridinyl)carbonyl]amino}phenyl)-2-methyl-6-quinolinecarboxamide] | 4.64 |
| Cc1cc(N)c2cc(C(=O)Nc3ccc(Nc4cc(C)[n+](C)c(N)n4)cc3)ccc2n1 [Example 7, 2-Amino-4-[(4-{[(4-amino-2-methyl-6-quinolinyl)carbonyl]amino}phenyl)amino]-1,6-dimethylpyrimidin-1-ium] | 5.12 |
| Cc1cc(N)c2cc(C(=O)Nc3ccc(CNC(=O)c4ccc(Cl)nc4)cc3)ccc2n1 [Example 11, 4-Amino-N-[4-({[(6-chloro-3-pyridinyl)carbonyl]amino}methyl)phenyl]-2-methyl-6-quinolinecarboxamide] | 4.37 |
| Cc1cc(N)c2cc(C(=O)Nc3ccc(NC(=O)c4ccc5nc(C)cc(N)c5c4)cc3)ccc2n1 [Example 36] | 5.80 |
| Cc1cc(N)c2cc(C(=O)Nc3ccc(CNC(=O)c4cncc(Br)c4)cc3)ccc2n1 [Example 14, 4-Amino-N-[4-({[(3-bromo-5-pyridinyl)carbonyl]amino}methyl)phenyl]-2-methyl-6-quinolinecarboxamide] | 4.54 |
| Cc1cc(N)c2cc(C(=O)Nc3ccc(NC(=O)c4cnccn4)cc3)ccc2n1 [Example 24, 4-Amino-N-(4-{[(2-pyrazinyl)carbonyl]amino}phenyl)-2-methyl-6-quinolinecarboxamide] | 4.82 |
| Cc1cc(N)c2cc(C(=O)Nc3ccc(NC(=O)c4nccnc4N)cc3)ccc2n1 [Example 20, 4-Amino-N-(4-{[(2-amino-3-pyrazinyl)carbonyl]amino}phenyl)-2-methyl-6-quinolinecarboxamide] | 5.36 |
| Cc1cc(N)c2cc(C(=O)Nc3ccc(NC(=O)c4ccc5nc(N)sc5c4)cc3)ccc2n1 [Example 31] | 5.54 |
| Cc1cc(N)c2cc(C(=O)Nc3ccc(CNC(=O)c4ccccn4)cc3)ccc2n1 [Example 12, 4-Amino-2-methyl-N-(4-{[(2-pyridinylcarbonyl)amino]methyl}phenyl)-6-quinolinecarboxamide] | 4.23 |
| Cc1cc(N)c2cc(C(=O)Nc3ccc(CNc4ccc5cn[nH]c5c4)cc3)ccc2n1 [Example 37, 4-Amino-N-{4-[(1H-indazol-6-ylamino)methyl]phenyl}-2-methyl-6-quinolinecarboxamide] | 5.59 |
| Cc1cc(N)c2cc(C(=O)Nc3ccc(NC(=O)c4ccc(OC5CCNCC5)cc4)cc3)ccc2n1 [Example 29, 4-Amino-N-(4-{[4-(4-piperidinyloxy)benzoyl]amino}phenyl)-2-methyl-6-quinolinecarboxamide] | 4.70 |
| Cc1cc(N)c2cc(NC(=O)c3ccc(CNC(=O)c4cnccn4)cc3)ccc2n1 [Example 4, Pyrazine-2-carboxylic acid 4-(4-amino-2-methyl-quinolin-6-ylcarbamoyl)-benzylamide] | 4.12 |
| Cc1cc(N)c2cc(C(=O)Nc3ccc(NC(=O)c4ccc(Cl)c(S(N)(=O)=O)c4)cc3)ccc2n1 [Example 26, 4-Amino-N-(4-{[3-(aminosulfonyl)-4-chlorobenzoyl]amino}phenyl)-2-methyl-6-quinolinecarboxamide] | 4.48 |
| Cc1cc(N)c2cc(NC(=O)c3ccc(CNC(=O)c4cncc(N5CCCC5)n4)cc3)ccc2n1 [Example 6, 6-Pyrrolidin-1-yl-pyrazine-2-carboxylic acid 4-(4-amino-2-methyl-quinolin-6-ylcarbamoyl)-benzylamide] | 4.32 |
| COc1cc(NC(=O)c2ccc3[nH]c(C)nc3c2)ccc1NC(=O)c1ccc2nc(C)cc(N)c2c1 [Example 35, 4-Amino-N-(2-methoxy-4-{[(2-methyl-1H-benzimidazol-5-yl)carbonyl]amino}phenyl)-2-methyl-6-quinolinecarboxamide] | 5.04 |
| COc1cc(NC(=O)c2ccc3nc(N)ccc3c2)ccc1NC(=O)c1ccc2nc(C)cc(N)c2c1 [Example 34, 4-Amino-N-(4-{[(2-amino-6-quinolinyl)carbonyl]amino}-2-methoxyphenyl)-2-methyl-6-quinolinecarboxamide] | 5.44 |
| Cc1cc(N)c2cc(C(=O)NC3CCC(NC(=O)c4ccc5nc(N)ccc5c4)CC3)ccc2n1 (stereo not shown) [Example 39, 4-Amino-N-(4-{[(2-amino-6-quinolinyl)carbonyl]amino}cyclohexyl)-2-methyl-6-quinolinecarboxamide] | 4.55 |
| Cc1cc(N)c2cc(C(=O)Nc3ccc(NC(=O)c4ccc5[nH]c(N)nc5c4)cc3)ccc2n1 [Example 30, 4-Amino-N-(4-{[(2-amino-1H-benzimidazol-5-yl)carbonyl]amino}phenyl)-2-methyl-6-quinolinecarboxamide] | 5.39 |
